Where “and” joins values, the source holds several entries; their conditions need not be identical. Equal entries are not always repeated. Inconclusive results and toxic doses are left out.
Test system: L1210 leukemia ip in BDF1 mice, survival T/C
Test: NCI In Vivo Anticancer Drug Screen. Data for tumor model L1210 Leukemia (intraperitoneal) in B6D2F1 (BDF1) mice
Details: endpoint: mean survival time, higher = longer survival
In short: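 Transplanted-tumor mice were given test agent; controls received vehicle only. Survival readings from the two groups were divided (treated over control).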

[1] = dose: 100.0 mg/kg/injection, schedule: Q01DX009 (ip), vehicle: Klucel (hydroxypropylcellulose) (HPC)
[2] = dose: 100.0 mg/kg/injection, schedule: Q04DX003 (ip), vehicle: Klucel (hydroxypropylcellulose) (HPC)
[3] = dose: 200.0 mg/kg/injection, schedule: Q01DX009 (ip), vehicle: Klucel (hydroxypropylcellulose) (HPC)
[4] = dose: 200.0 mg/kg/injection, schedule: Q04DX003 (ip), vehicle: Klucel (hydroxypropylcellulose) (HPC)
[5] = dose: 400.0 mg/kg/injection, schedule: Q01DX009 (ip), vehicle: Klucel (hydroxypropylcellulose) (HPC)
[6] = dose: 400.0 mg/kg/injection, schedule: Q04DX003 (ip), vehicle: Klucel (hydroxypropylcellulose) (HPC)
[7] = dose: 100.0 mg/kg/injection, schedule: Q04DX003 (ip), vehicle: saline with Tween-80
[8] = dose: 200.0 mg/kg/injection, schedule: Q04DX003 (ip), vehicle: saline with Tween-80
[9] = dose: 400.0 mg/kg/injection, schedule: Q04DX003 (ip), vehicle: saline with Tween-80
[10] = dose: 100.0 mg/kg/injection, schedule: Q01DX009 (ip), vehicle: saline with Tween-80
[11] = dose: 100.0 mg/kg/injection, schedule: Q01DX001 (ip), vehicle: other
[12] = dose: 100.0 mg/kg/injection, schedule: Q04DX002 (ip), vehicle: Klucel (hydroxypropylcellulose) (HPC)
[13] = dose: 200.0 mg/kg/injection, schedule: Q04DX002 (ip), vehicle: Klucel (hydroxypropylcellulose) (HPC)
[14] = dose: 400.0 mg/kg/injection, schedule: Q04DX002 (ip), vehicle: Klucel (hydroxypropylcellulose) (HPC)

With Oc1ccc(C2CCc3ccccc32)cc1 (centres undefined) the T/C [1] was 100 % of control, the T/C [2] was 95 % of control and the T/C [3] was 104 % of control. The T/C [4] was 100 % of control, the T/C [5] was 95 % of control and the T/C [6] was 93 % of control.

O=C(O)C1C2CCC1C2 (centres undefined) was tested, and the T/C [7] was 98 % of control, the T/C [8] was 101 % of control and the T/C [9] was 95 % of control.

For Clc1ccc(NC(Nc2ccc(Cl)c(Cl)c2)C(Cl)(Cl)Cl)cc1Cl, the T/C [7] was 101 % of control and the T/C [8] was 90 % of control.

In the case of O=C(Nc1ccccc1)Nc1cc(C(F)(F)F)ccc1Cl, the T/C [10] is reported as 86 % of control, the T/C [7] is reported as 91 % of control and the T/C [8] is reported as 90 % of control. The T/C (dose: 400.0 mg/kg/injection, schedule: Q01DX009 (ip), vehicle: saline with Tween-80) was 92 % of control and the T/C [9] was 95 % of control.

For CC1(C)N=C(N)N=C(N)N1c1ccc2ccccc2c1, the T/C (dose: 5.0 mg/kg/injection, schedule: Q01DX001 (ip), vehicle: other) was 105 % of control, the T/C (dose: 10.0 mg/kg/injection, schedule: Q01DX001 (ip), vehicle: other) was 102 % of control and the T/C (dose: 20.0 mg/kg/injection, schedule: Q01DX001 (ip), vehicle: other) was 96 % of control. The T/C (dose: 25.0 mg/kg/injection, schedule: Q01DX015 (ip), vehicle: other) was 97 % of control, the T/C (dose: 40.0 mg/kg/injection, schedule: Q01DX001 (ip), vehicle: other) was 105 % of control and the T/C (dose: 50.0 mg/kg/injection, schedule: Q01DX015 (ip), vehicle: other) was 107 % of control. The T/C (dose: 80.0 mg/kg/injection, schedule: Q01DX001 (ip), vehicle: other) was 100 % of control and the T/C [11] was 104 % of control.

Nc1cc(NC(c2ccccc2)c2ccccc2)c([N+](=O)[O-])c(N)n1 was tested, and the T/C (dose: 100.0 mg/kg/injection, schedule: Q01DX001 (ip), vehicle: saline with Tween-80) was 98 % of control, the T/C (dose: 200.0 mg/kg/injection, schedule: Q01DX001 (ip), vehicle: saline with Tween-80) was 98 % of control and the T/C (dose: 400.0 mg/kg/injection, schedule: Q01DX001 (ip), vehicle: saline with Tween-80) was 93 % of control.

With COC(=O)C1=CCC(C2(C)CO2)CC1 (centres undefined) the T/C [2] was 104 % of control, the T/C [4] was 109 % of control and the T/C [6] was 104 % of control.

ClC1=C(Cl)C2(Cl)C3C4CCC(C4)C3C1(Cl)C2(Cl)Cl (centres undefined) was tested, and the T/C (dose: 200.0 mg/kg/injection, schedule: Q04DX003 (ip), vehicle: saline) was 121 % of control and the T/C (dose: 400.0 mg/kg/injection, schedule: Q04DX003 (ip), vehicle: saline) was 108 % of control.

For CCC(=O)Nc1ccc(C)cc1C, the T/C [1] was 92 % of control, the T/C [2] was 97 % of control and the T/C [3] was 94 % of control. The T/C [4] was 107 % of control and the T/C [6] was 96 % of control.

For c1ccc2c(Nc3ccc(C4=NCCN4)cc3)nnc(Nc3ccc(C4=NCCN4)cc3)c2c1, the T/C (dose: 38.0 mg/kg/injection, schedule: Q01DX Z (ip), vehicle: carboxymethylcellulose (CMC)) was 110 % of control, the T/C (dose: 62.5 mg/kg/injection, schedule: Q01DX Z (oral), vehicle: saline) was 103 % of control and the T/C (dose: 63.0 mg/kg/injection, schedule: Q01DX Z (oral), vehicle: water) was 95 % of control. The T/C (dose: 84.0 mg/kg/injection, schedule: Q01DX Z (ip), vehicle: carboxymethylcellulose (CMC)) was 170 % of control, the T/C (dose: 125.0 mg/kg/injection, schedule: Q01DX Z (oral), vehicle: saline) was 103 % of control and the T/C (dose: 125.0 mg/kg/injection, schedule: Q01DX Z (oral), vehicle: water) was 87 % of control. The T/C (dose: 187.5 mg/kg/injection, schedule: Q01DX Z (ip), vehicle: carboxymethylcellulose (CMC)) was 119 % of control, the T/C (dose: 250.0 mg/kg/injection, schedule: Q01DX Z (oral), vehicle: saline) was 105 % of control and the T/C (dose: 500.0 mg/kg/injection, schedule: Q01DX Z (oral), vehicle: water) was 87 % of control.

In the case of Nc1nc(N)c2cc(CCc3ccccc3)ccc2n1, the T/C (dose: 50.0 mg/kg/injection, schedule: Q01DX001 (ip), vehicle: carboxymethylcellulose (CMC)) is reported as 95 % of control, the T/C (dose: 100.0 mg/kg/injection, schedule: Q01DX001 (ip), vehicle: carboxymethylcellulose (CMC)) is reported as 95 % of control and the T/C [2] is reported as 95 % of control. For the same compound, the T/C (dose: 200.0 mg/kg/injection, schedule: Q01DX001 (ip), vehicle: carboxymethylcellulose (CMC)) was 101 % of control and the T/C [4] was 90 % of control.

In the case of COc1ccc2c(c1)C1CCCCC1SCC2=O (centres undefined), the T/C [11] is reported as 100 % of control, the T/C (dose: 200.0 mg/kg/injection, schedule: Q01DX001 (ip), vehicle: other) is reported as 96 % of control and the T/C (dose: 400.0 mg/kg/injection, schedule: Q01DX001 (ip), vehicle: other) is reported as 96 % of control.

O=C1OC(=O)c2c(O)cccc21 was tested, and the T/C (dose: 12.5 mg/kg/injection, schedule: Q01DX001 (ip), vehicle: saline) was 101 % of control, the T/C (dose: 25.0 mg/kg/injection, schedule: Q01DX001 (ip), vehicle: saline) was 105 % of control and the T/C (dose: 25.0 mg/kg/injection, schedule: Q01DX009 (ip), vehicle: saline with Tween-80) was 98 % of control. The T/C (dose: 50.0 mg/kg/injection, schedule: Q01DX001 (ip), vehicle: saline) was 103 % of control, the T/C (dose: 50.0 mg/kg/injection, schedule: Q01DX009 (ip), vehicle: saline with Tween-80) was 104 % of control and the T/C [10] was 98 % of control. For the same compound, the T/C (dose: 150.0 mg/kg/injection, schedule: Q01DX009 (ip), vehicle: saline with Tween-80) was 118 % of control.

With C=CCNC(=S)N(Cc1ccccc1)Cc1ccccc1 the T/C [12] was 105 % of control, the T/C [13] was 101 % of control and the T/C [14] was 94 % of control.

For COC(=O)c1ccc(C(=O)O)cc1[N+](=O)[O-], the T/C [1] was 102 % of control, the T/C [3] was 102 % of control and the T/C [5] was 90 % of control.

For COC1OC(CO)C(O)C1OS(C)(=O)=O (centres undefined), the T/C (dose: 100.0 mg/kg/injection, schedule: Q01DX001 (ip), vehicle: saline) was 101 % of control, the T/C (dose: 200.0 mg/kg/injection, schedule: Q01DX001 (ip), vehicle: saline) was 103 % of control and the T/C (dose: 400.0 mg/kg/injection, schedule: Q01DX001 (ip), vehicle: saline) was 101 % of control.

For O=C(Nc1cccc([N+](=O)[O-])c1)Nc1ccccc1F, the T/C [1] was 91 % of control, the T/C [12] was 108 % of control and the T/C [3] was 101 % of control. For the same compound, the T/C [13] was 91 % of control, the T/C [5] was 101 % of control and the T/C [14] was 94 % of control.

CC(=O)Nc1ccc(/C=N/NC(=O)COCC(=O)N/N=C/c2ccc(NC(C)=O)cc2)cc1 was tested, and the T/C [1] was 91 % of control, the T/C [3] was 94 % of control and the T/C [5] was 96 % of control.

O=S(=O)(Cl)c1ccccc1S(=O)(=O)Cl was tested, and the T/C [2] was 95 % of control, the T/C [4] was 93 % of control and the T/C [6] was 86 % of control.

With CCCCCCCC[n+]1cccc(C#N)c1 the T/C (dose: 18.75 mg/kg/injection, schedule: Q01DX009 (ip), vehicle: saline) was 104 % of control, the T/C (dose: 37.5 mg/kg/injection, schedule: Q01DX009 (ip), vehicle: saline) was 91 % of control and the T/C (dose: 37.5 mg/kg/injection, schedule: Q04DX003 (ip), vehicle: acetone) was 97 % of control. For the same compound, the T/C (dose: 75.0 mg/kg/injection, schedule: Q01DX001 (ip), vehicle: saline) was 91 % of control, the T/C (dose: 75.0 mg/kg/injection, schedule: Q01DX009 (ip), vehicle: saline) was 93 % of control and the T/C (dose: 75.0 mg/kg/injection, schedule: Q04DX003 (ip), vehicle: acetone) was 97 % of control. For the same compound, the T/C (dose: 150.0 mg/kg/injection, schedule: Q01DX001 (ip), vehicle: saline) was 95 % of control and the T/C (dose: 150.0 mg/kg/injection, schedule: Q04DX003 (ip), vehicle: acetone) was 95 % of control.

In the case of Brc1cnn2c1NCC2, the T/C (dose: 12.5 mg/kg/injection, schedule: Q01DX009 (ip), vehicle: water) is reported as 100 % of control, the T/C (dose: 12.5 mg/kg/injection, schedule: Q04DX003 (ip), vehicle: water) is reported as 95 % of control and the T/C (dose: 25.0 mg/kg/injection, schedule: Q01DX009 (ip), vehicle: water) is reported as 101 % of control. The T/C (dose: 25.0 mg/kg/injection, schedule: Q04DX003 (ip), vehicle: water) was 100 % of control, the T/C (dose: 50.0 mg/kg/injection, schedule: Q01DX009 (ip), vehicle: water) was 97 % of control and the T/C (dose: 50.0 mg/kg/injection, schedule: Q04DX003 (ip), vehicle: water) was 101 % of control. For the same compound, the T/C (dose: 100.0 mg/kg/injection, schedule: Q01DX009 (ip), vehicle: water) was 97 % of control and 89 % of control and the T/C (dose: 200.0 mg/kg/injection, schedule: Q01DX009 (ip), vehicle: water) was 93 % of control.

For Cc1ccc(N=C(c2ccccc2)c2ccc([N+](=O)[O-])cc2)cc1, the T/C [1] was 98 % of control, the T/C [2] was 105 % of control and the T/C [3] was 101 % of control. For the same compound, the T/C [4] was 93 % of control, the T/C [5] was 103 % of control and the T/C [6] was 102 % of control.

Reference: PubChem BioAssay AID248 (DTP/NCI, 2004)
